# Tested on: LoVo (CCL-229) cells
# Test: Tumor cell anti-proliferation assay (CTG assay)
# Format: cell-based
# Conditions: LoVo human colorectal cancer cells, 96 h, CellTiter-Glo
# Procedure: Assay 2: Tumor Cell Anti-proliferation Assay (CTG Assay)
# Human colorectal cancer cells HT-29 (HTB-38) and LoVo (CCL-229) were selected for the CTG assay, the two cell lines were originally obtained from the American Type Culture Collection (ATCC). FBS and appropriate additives were added into base medium to prepare complete medium, then the cell layer was briefly rinsed with 0.25% (w/v) Trypsin-0.038% (w/v) EDTA solution to remove all traces of serum that contains trypsin inhibitor. After that, appropriate volume of Trypsin-EDTA solution was added to flask and cells under an inverted microscope were observed until cell layer was dispersed. At last, appropriate volume of complete growth medium was added and cells were aspirated by gently pipetting. Numbers were collected and counted with Vi-cell XR and cell density was adjusted, cells were seeded into 96-well opaque-walled clear bottom tissue-culture treated plates in the CO2 incubator for 20-24 hours. All the test compounds were at 10 mM in DMSO. Compounds were then added to the cell media in 3-fold serial dilutions, the final DMSO concentration was 0.5%. Plates were incubated for 96 h at 5% CO2, 37° C. Before the measurement, the appropriate volume of CellTiter-Glo Buffer was transferred into the amber bottle containing CellTiter-Glo substrate to reconstitute the lyophilized enzyme/substrate mixture, mixed gently, thereby forming the CellTiter-Glo Reagent (Promega Cat. No. G7573). The plate and its contents were equilibrated to room temperature for approximately 30 minutes, then 100 μL of CellTiter-Glo Reagent was added to the assay plate, the contents were mixed for 2 minutes on an orbital shaker to induce cell lysis, incubated at room temperature for 10 minutes to stabilize luminescent signal. At last the clear bottom was pasted with white back seal and luminescence was recorded with Enspire. IC50 and GI50 values were calculated with XLFit curve fitting software using 4 Parameter Logistic Model Y=Bottom+(Top−Bottom)/(1+(IC50/X)^HillSlope).
row,Compound,IC50 [nM]
1,"C[C@@H]1COCCN1c1cc(C2(S(C)(=O)=O)CC2)nc(Nc2cc(Cl)n[nH]2)n1 [Example 77, (R)—N-(3-chloro-1H-pyrazol-5-yl)-4-(3-methylmorpholino)-6-(1-(methylsulfonyl)cyclopropyl)pyrimidin-2-amine]",1000
2,"Cc1cc(-c2nsc3c(N4CCCCS4(=O)=O)cc(N4CCOC[C@H]4C)nc23)[nH]n1 [Example 82, 2-[3-(3-methyl-1H-pyrazol-5-yl)-5-[(3R)-3-methylmorpholin-4-yl]-[1,2]thiazolo[4,5-b]pyridin-7-yl]-1λ^6,2-thiazinane-1,1-dione]",20
3,"Cc1cc(-c2ncc3c(C(C)(C)S(C)(=O)=O)cc(N4CCOC[C@H]4C)nn23)[nH]n1 [Example 42, (R)-3-methyl-4-(7-(3-methyl-1H-pyrazol-5-yl)-4-(2-(methylsulfonyl)propan-2-yl)imidazo[1,5-b]pyridazin-2-yl)morpholine]",79.3
4,"C[C@@H]1COCCN1c1cc(-c2ccnn2C)c2c(Cl)nc(-c3ccn[nH]3)n2n1 [Example 61, (3R)-4-[5-chloro-4-(1-methyl-1H-pyrazol-5-yl)-7-(1H-pyrazol-5-yl)imidazo[1,5-b]pyridazin-2-yl]-3-methylmorpholine]",26.5
5,"Cc1cc(-c2nsc3c(C(C)(C)C#N)cc(N4CCOC[C@H]4C)nc23)[nH]n1 [Example 54, (R)-2-methyl-2-(3-(3-methyl-1H-pyrazol-5-yl)-5-(3-methylmorpholino)isothiazolo[4,5-b]pyridin-7-yl)propanenitrile]",66.7
6,"Cc1cc(-c2nsc3c(C4(CO)CCOCC4)cc(N4CCOC[C@H]4C)nc23)[nH]n1 [Example 105, (R)-(4-(3-(3-methyl-1H-pyrazol-5-yl)-5-(3-methylmorpholino)isothiazolo[4,5-b]pyridin-7-yl)tetrahydro-2H-pyran-4-yl)methanol]",9
7,"Cc1cc(-c2nsc3c(-c4cccnc4C(F)(F)F)cc(N4CCOC[C@H]4C)nc23)[nH]n1 [Example 96, (3R)-3-methyl-4-[3-(3-methyl-1H-pyrazol-5-yl)-7-[2-(trifluoromethyl)pyridin-3-yl]-[1,2]thiazolo[4,5-b]pyridin-5-yl]morpholine]",32.7
8,"Cc1cc(-c2nsc3c(C4(CO)CC4)cc(N4CCOC[C@H]4C)nc23)[nH]n1 [Example 98, (R)-(1-(3-(3-methyl-1H-pyrazol-5-yl)-5-(3-methylmorpholino)isothiazolo[4,5-b]pyridin-7-yl)cyclopropyl)methanol]",14
9,"C[C@@H]1COCCN1c1cc(C2(S(C)(=O)=O)CC2)c2snc(-c3ccn[nH]3)c2n1 [Example 49, (R)-3-methyl-4-(7-(1-(methylsulfonyl)cyclopropyl)-3-(1H-pyrazol-5-yl)isothiazolo[4,5-b]pyridin-5-yl)morpholine]",16.1
10,"Cc1nnn(C)c1-c1cc(N2CCOC[C@H]2C)nn2c(-c3ccn[nH]3)nc(C)c12 [Example 45, (3R)-4-[4-(dimethyl-1H-1,2,3-triazol-5-yl)-5-methyl-7-(1H-pyrazol-5-yl)imidazo[1,5-b]pyridazin-2-yl]-3-methylmorpholine]",81.7
11,"CCn1nncc1-c1cc(N2CCOC[C@H]2C)nc2c(-c3cc(C)n[nH]3)nsc12 [Example 107, (3R)-4-[7-(1-ethyl-1H-1,2,3-triazol-5-yl)-3-(3-methyl-1H-pyrazol-5-yl)-[1,2]thiazolo[4,5-b]pyridin-5-yl]-3-methylmorpholine]",15
12,"C[C@@H]1COCCN1c1cc(C2(C(N)=O)CCCC2)c2snc(-c3ccn[nH]3)c2n1 [Example 90, 1-{5-[(3R)-3-methylmorpholin-4-yl]-3-(1H-pyrazol-5-yl)-[1,2]thiazolo[4,5-b]pyridin-7-yl}cyclopentane-1-carboxamide]",5
13,"Cn1nccc1-c1cc(N2CC3CCC(C2)O3)nn2c(-c3ccn[nH]3)ncc12 [Example 78, 3-[4-(1-methyl-1H-pyrazol-5-yl)-7-(1H-pyrazol-5-yl)imidazo[1,5-b]pyridazin-2-yl]-8-oxa-3-azabicyclo[3.2.1]octane]",152
14,"Cc1noc(C)c1-c1cc(N2CCOC[C@H]2C)nc2c(-c3ccn[nH]3)nsc12 [Example 72, (R)-4-(7-(3,5-dimethylisoxazol-4-yl)-3-(1H-pyrazol-5-yl)isothiazolo[4,5-b]pyridin-5-yl)-3-methylmorpholine]",101
15,"C[C@@H]1COCCN1c1cc(-c2cnnn2C)c2snc(-c3ccn[nH]3)c2n1 [Example 69, (R)-3-methyl-4-(7-(1-methyl-1H-1,2,3-triazol-5-yl)-3-(1H-pyrazol-5-yl)isothiazolo[4,5-b]pyridin-5-yl)morpholine]",15
16,"Cc1cc(-c2nsc3c(C(C)(C)O)cc(N4CCOC[C@H]4C)nc23)[nH]n1 [Example 67, (R)-2-(3-(3-methyl-1H-pyrazol-5-yl)-5-(3-methylmorpholino)isothiazolo[4,5-b]pyridin-7-yl)propan-2-ol]",5
17,"Cc1cc(-c2nsc3c(C4(C(N)=O)CCCCC4)cc(N4CCOC[C@H]4C)nc23)[nH]n1 [Example 88, (R)-1-(3-(3-methyl-1H-pyrazol-5-yl)-5-(3-methylmorpholino)isothiazolo[4,5-b]pyridin-7-yl)cyclohexane-1-carboxamide]",1
18,"C[C@@H]1COCCN1c1cc(-c2cccnc2C(F)(F)F)c2snc(-c3ccn[nH]3)c2n1 [Example 101, (3R)-3-methyl-4-[3-(1H-pyrazol-5-yl)-7-[2-(trifluoromethyl)pyridin-3-yl]-[1,2]thiazolo[4,5-b]pyridin-5-yl]morpholine]",15.5

# Target: ATR kinase (Homo sapiens (Human), UniProt Q13535)
# Sequence (Q13535 whole entry): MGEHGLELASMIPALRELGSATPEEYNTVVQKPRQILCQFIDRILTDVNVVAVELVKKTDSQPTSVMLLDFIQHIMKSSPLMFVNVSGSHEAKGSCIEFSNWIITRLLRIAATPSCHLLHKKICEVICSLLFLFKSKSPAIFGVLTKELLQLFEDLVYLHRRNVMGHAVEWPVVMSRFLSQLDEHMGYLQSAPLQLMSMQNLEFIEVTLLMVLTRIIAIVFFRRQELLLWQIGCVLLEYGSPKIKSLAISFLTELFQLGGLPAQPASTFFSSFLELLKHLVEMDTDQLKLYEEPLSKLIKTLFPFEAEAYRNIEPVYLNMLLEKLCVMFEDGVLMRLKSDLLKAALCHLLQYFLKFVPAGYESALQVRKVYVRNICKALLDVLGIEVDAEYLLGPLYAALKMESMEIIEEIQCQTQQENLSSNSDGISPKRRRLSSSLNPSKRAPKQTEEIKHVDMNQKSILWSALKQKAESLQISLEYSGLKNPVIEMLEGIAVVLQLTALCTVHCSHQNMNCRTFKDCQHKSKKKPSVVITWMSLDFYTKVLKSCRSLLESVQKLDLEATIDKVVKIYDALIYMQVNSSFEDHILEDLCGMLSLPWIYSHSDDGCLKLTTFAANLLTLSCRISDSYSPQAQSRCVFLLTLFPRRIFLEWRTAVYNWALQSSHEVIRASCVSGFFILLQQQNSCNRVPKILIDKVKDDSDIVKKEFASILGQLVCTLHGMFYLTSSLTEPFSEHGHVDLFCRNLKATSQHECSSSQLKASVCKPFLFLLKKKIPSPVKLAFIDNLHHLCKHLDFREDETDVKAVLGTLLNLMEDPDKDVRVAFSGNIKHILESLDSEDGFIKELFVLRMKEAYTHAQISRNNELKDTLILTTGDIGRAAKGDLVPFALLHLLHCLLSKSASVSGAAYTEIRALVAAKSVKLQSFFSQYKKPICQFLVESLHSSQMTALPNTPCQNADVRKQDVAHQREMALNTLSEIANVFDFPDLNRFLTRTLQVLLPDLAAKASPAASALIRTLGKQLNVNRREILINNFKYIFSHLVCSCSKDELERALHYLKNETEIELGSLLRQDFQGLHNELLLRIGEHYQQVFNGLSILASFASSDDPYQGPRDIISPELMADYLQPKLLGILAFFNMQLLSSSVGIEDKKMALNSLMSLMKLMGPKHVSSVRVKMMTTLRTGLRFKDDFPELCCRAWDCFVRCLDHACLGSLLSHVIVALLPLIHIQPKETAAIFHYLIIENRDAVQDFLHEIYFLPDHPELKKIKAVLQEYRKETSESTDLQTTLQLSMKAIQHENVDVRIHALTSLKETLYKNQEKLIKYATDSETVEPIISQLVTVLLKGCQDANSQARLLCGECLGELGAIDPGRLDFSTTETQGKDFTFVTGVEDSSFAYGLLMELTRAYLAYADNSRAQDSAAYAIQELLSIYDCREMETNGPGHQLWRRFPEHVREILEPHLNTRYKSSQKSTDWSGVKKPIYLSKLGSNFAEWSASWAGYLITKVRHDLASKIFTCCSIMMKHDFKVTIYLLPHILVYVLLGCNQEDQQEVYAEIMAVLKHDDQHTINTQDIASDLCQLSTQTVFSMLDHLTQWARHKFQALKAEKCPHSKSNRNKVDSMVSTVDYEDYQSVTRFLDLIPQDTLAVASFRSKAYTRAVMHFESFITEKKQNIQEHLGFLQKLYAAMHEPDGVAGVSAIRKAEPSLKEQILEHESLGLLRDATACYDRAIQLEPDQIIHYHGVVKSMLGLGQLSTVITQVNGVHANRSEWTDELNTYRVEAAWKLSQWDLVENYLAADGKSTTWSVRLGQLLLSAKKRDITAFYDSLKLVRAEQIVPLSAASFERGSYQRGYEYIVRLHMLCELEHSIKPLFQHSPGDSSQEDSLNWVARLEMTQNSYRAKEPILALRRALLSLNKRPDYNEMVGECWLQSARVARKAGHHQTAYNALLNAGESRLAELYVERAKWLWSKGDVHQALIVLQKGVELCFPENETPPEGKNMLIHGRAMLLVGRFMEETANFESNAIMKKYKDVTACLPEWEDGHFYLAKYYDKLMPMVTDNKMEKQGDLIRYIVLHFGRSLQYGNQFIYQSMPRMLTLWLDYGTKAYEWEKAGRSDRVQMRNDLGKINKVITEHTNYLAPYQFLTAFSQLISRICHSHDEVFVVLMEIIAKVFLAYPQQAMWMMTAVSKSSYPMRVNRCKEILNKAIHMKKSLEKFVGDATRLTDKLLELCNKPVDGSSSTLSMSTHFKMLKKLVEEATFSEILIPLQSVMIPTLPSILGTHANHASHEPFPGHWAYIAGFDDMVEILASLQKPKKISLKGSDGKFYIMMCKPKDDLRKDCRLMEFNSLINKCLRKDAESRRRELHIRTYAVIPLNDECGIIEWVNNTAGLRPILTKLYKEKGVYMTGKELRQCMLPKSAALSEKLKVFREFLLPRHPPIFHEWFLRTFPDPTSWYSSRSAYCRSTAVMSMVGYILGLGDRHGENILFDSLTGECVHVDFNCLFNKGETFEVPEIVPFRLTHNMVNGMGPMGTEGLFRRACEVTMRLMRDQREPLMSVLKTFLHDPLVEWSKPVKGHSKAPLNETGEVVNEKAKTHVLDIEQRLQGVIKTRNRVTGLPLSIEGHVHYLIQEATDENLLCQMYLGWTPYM
# Sequence (Q8WXE1 whole entry partner): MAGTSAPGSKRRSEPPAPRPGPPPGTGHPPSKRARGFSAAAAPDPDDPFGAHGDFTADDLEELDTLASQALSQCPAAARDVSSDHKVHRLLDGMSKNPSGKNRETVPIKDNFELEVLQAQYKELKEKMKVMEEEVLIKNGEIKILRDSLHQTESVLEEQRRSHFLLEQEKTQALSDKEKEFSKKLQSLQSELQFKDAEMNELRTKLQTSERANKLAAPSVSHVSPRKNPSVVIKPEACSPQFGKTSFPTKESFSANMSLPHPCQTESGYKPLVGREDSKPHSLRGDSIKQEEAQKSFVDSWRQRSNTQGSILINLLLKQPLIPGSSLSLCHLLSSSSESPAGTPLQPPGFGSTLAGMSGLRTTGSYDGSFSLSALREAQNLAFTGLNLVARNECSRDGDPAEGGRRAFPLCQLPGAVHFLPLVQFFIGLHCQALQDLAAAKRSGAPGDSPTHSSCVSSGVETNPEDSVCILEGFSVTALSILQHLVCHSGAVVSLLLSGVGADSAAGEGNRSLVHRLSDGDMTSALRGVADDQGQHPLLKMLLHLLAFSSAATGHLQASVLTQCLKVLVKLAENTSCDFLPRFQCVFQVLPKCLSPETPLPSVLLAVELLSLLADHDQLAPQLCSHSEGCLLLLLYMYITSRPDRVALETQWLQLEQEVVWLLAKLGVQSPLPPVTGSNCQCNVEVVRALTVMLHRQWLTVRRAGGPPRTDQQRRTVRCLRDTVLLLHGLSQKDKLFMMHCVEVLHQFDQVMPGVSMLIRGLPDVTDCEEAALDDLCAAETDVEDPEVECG
# Test: ATR inhibition assay (mobility shift assay, phosphorylation of FAM-RAD17)
# Format: biochemical
# Conditions: ATR kinase (Eurofins), substrate FAM-RAD17, mobility shift
# Procedure: Assay 1: ATR Inhibition Assay
# Detection of ATR kinase activity utilized the Mobility shift assay to measure the phosphorylation of the substrate protein FAM-RAD17 (GL, Cat. No. 514318, Lot. No. P19042-MJ524315). The assay was developed and conducted at Chempartner. All the test compounds were dissolved in 100% DMSO at concentration of 20 mM, then prepare compounds and conducted the assay as follows: • 1) Transfer 80 μl 20 mM compound to 40 μl of 100% DMSO in a 96-well plate. • 2) Serially dilute the compound by transferring 20 μl to 60 μl of 100% DMSO in the next well and so forth for a total of 10 concentrations. • 3) Add 100 μl of 100% DMSO to two empty wells for no compound control and no enzyme control in the same 96-well plate. Mark the plate as source plate. • 4) Transfer 40 μl of compound from source plate to a new 384-well plate as the intermediate plate. • 5) Transfer 60 nl compounds to assay plate by Echo. • 6) Add ATR kinase (Eurofins, Cat. No. 14-953, Lot. No. D14 JP007N) into Kinase base buffer (50 mM HEPES, pH 7.5; 0.0015% Brij-35; 0.01% Triton) to prepare 2× enzyme solution, then add 10 μl of 2× enzyme solution to each well of the 384-well assay plate, incubate at room temperature for 10 min. • 7) Add FAM-RAD17 and ATP (Sigma, Cat. No. A7699-1G, CAS No. 987-65-5) in the kinase base buffer to prepare 2×peptide solution, then add 10 μl to the assay plate. • 8) Incubate at 28° C. for specified period of time. Add 40 μl of stop buffer (100 mM HEPES, pH 7.5; 0.015% Brij-35; 0.2% Coating Reagent #3; 50 mM EDTA) to stop reaction. • 9) Collect data on Caliper. Convert conversion values to inhibition values.
# Percent inhibition=(max−conversion)/(max−min)*100 wherein “max” stands for DMSO control; “min” stands for low control.
# Fit the data in XLFit excel add-in version 5.4.0.8 to obtain IC50 values. Equation used is:
# Y=Bottom+(Top−Bottom)/(1+(IC50/X)^HillSlope) wherein X means concentration in a format not transformed to logarithms.
row,Compound,IC50 [nM]
1,"CCP(=O)(CC)c1cc(N2CCOC[C@H]2C)nn2c(-c3ccn[nH]3)ncc12 [Example 39, (3R)-4-[4-(diethylphosphoryl)-7-(1H-pyrazol-5-yl)imidazo[1,5-b]pyridazin-2-yl]-3-methylmorpholine]",< 100
2,"C[C@@H]1COCCN1c1cc(C2([S@](C)(=N)=O)CC2)n2ncc(-c3ccn[nH]3)c2n1 [Example 7a, (R)-imino(methyl)(1-(5-((R)-3-methylmorpholino)-3-(1H-pyrazol-5-yl)pyrazolo[1,5-a]pyrimidin-7-yl)cyclopropyl)-λ6-sulfanone]",< 100
3,"Cc1cn[nH]c1-c1cnn2c(C3(S(C)(=O)=O)CC3)cc(N3CCOC[C@H]3C)nc12 [Example 14, (R)-3-methyl-4-(3-(4-methyl-1H-pyrazol-5-yl)-7-(1-(methylsulfonyl)cyclopropyl)pyrazolo[1,5-a]pyrimidin-5-yl)morpholine]",> 500
4,"C[C@@H]1COCCN1c1cc(C2(S(C)(=O)=O)CC2)n2ncc(-c3cc[nH]c3)c2n1 [Example 9, (R)-3-methyl-4-(7-(1-(methylsulfonyl)cyclopropyl)-3-(1H-pyrrol-3-yl)pyrazolo[1,5-a]pyrimidin-5-yl)morpholine]",< 100
5,"C[C@@H]1COCCN1c1cc(-c2ccnn2C)n2ncc(-c3cccnc3)c2n1 [Example 3, (R)-3-methyl-4-(7-(1-methyl-1H-pyrazol-5-yl)-3-(pyridin-3-yl)pyrazolo[1,5-a]pyrimidin-5-yl)morpholine]",100 to 500
6,"C[C@@H]1COCCN1c1cc(-c2ccnn2C)n2ncc(-c3cn[nH]c3)c2n1 [Example 2, (R)-3-methyl-4-(7-(1-methyl-1H-pyrazol-5-yl)-3-(1H-pyrazol-4-yl)pyrazolo [1,5-a]pyrimidin-5-yl)morpholine]",> 500
